These results are taken from US10322135B2, “Pharmaceutical composition comprising indole compound” (LG CHEM, LTD., priority 2009, dated 2019).

The nature of assay [1]: Anti-oxidant effect by using DPPH. The conditions noted are these: read-out: DPPH anti-oxidant effect (IC50); concentration decreasing absorbance at 517 nm to 50%; 30 min, room temperature. In kind it is biochemical. How it is done:
DPPH (1,1-diphenyl-2-picrylhydrazyl) is a stable free radical and has a purple color. […] Herein, the term “IC50” refers to the concentration of a compound which decreases absorbance at 517 nm to 50% of the original value.
180 μl of DPPH solution (200 μM in DMSO) was dispensed into each well of a 96-well plate, and 20 μl of compounds, which was serially diluted two-fold from 2,000 μM, was added thereto. They were then well mixed and kept at room temperature for 30 minutes. After 30 minutes, O.D. value at 517 nm was measured with a spectraMAX ELISA reader.
(In general: Loss of DPPH colour is used to gauge radical scavenging.)

The subject of assay [2] is H9C2 cells. Nature of the assay: Cell protection effect against oxidative stress induced by tBOOH (SRB staining). It counts as cell-based. The following applies: Rattus norvegicus, 400 μM tBOOH 2 hrs, concentration protecting 50% of cells from necrosis. As to the method: It is known that tertiary-butylhydroperoxide (tBOOH) induces cell necrosis by causing oxidative stress in various cells. […] H9C2 cells were dispensed into each well of a 96-well plate (1.5×10 ^4 cells/100 μl/well). The next day, the cells were pretreated with each compound and then treated with tBOOH (final concentration: 400 μM) for 2 hrs. 50 μl of formaldehyde was added to each well to fix the cells. Cells were fixed for 30 minutes and washed with distilled water three times. Then, the plate was completely dried in a 50° C. dry oven and SRB solution was added thereto to stain remaining protein. The plate was washed with 1% acetic acid and dried. […] Herein, the term “IC50” refers to the concentration of compound which protects 50% of cells from necrosis induced by tBOOH treatment.

The nature of assay [3]: Direct anti-oxidant effect on H2O2 (DHR123 probe, cell-free). It counts as biochemical. The following applies: DHR123 1.25 μM, 2 hrs. How it is done: (§1) 10 μl of DHR123 probe (final concentration: 1.25 μM) was added to 10 μl of each compound which was diluted with 100 μl of DMEM complete media. H2O2 and tBOOH were added as the concentration shown in the following Table 5 and after 2 hrs, fluorescence at wavelengths (480 nm (ex)/538 nm (em)) was measured with spectraMax gemini. Herein, the term “IC25” refers to the concentration of compound which causes 25% decrease of fluorescence assuming the amount emitted by oxidation of DHR123 caused by H2O2 or tBOOH was 100%.

Assay [4] is described as follows: Direct anti-oxidant effect on tBOOH (DHR123 probe, cell-free). In kind it is biochemical. The conditions noted are these: DHR123 1.25 μM, 2 hrs. How it is done:
as §1

The nature of assay [5]: Removal capacity of ONOO− (peroxynitrite) by using dihydrorhodamine 123. It counts as biochemical. The conditions noted are these: 50% inhibition of DHR123 oxidation by 1 μM ONOO−. How it is done: ONOO^− (peroxynitrite), which is known as a kind of RNS, plays a very important role in oxidative stress. Thus, it is very important to evaluate the removal capacity of ONOO^− of necrosis inhibitors. It is well known that DHR123 probe is oxidized by ONOO^−. Thus, by using such a property, the capacity of each compound was measured.
10 μl of each compound, which was serially diluted 3-fold from 50 μM, was dispensed into each well of a 96-well plate, and then 170 μl of assay mixture (10 μM DHR123, 1×PBS, 100 μM DPTA without ONOO^−) was added to each well. Finally, 20 μl of ONOO^− solution (final concentration: 1 μM) was added to initiate a reaction. Herein, the term “IC50” refers to the concentration of compounds which causes 50% inhibition of oxidation of DHR123 by ONOO^−.

Assay [6] deals with H9C2 cells. Put plainly: Anti-oxidant effect by using dihydrorhodamine 123 in tBOOH-treated H9C2 cells. It counts as cell-based. The following applies: 1 hr pretreatment, 400 μM tBOOH 2 hrs, 25% inhibition of DHR123 fluorescence. How it is done: Dihydrorhodamine 123 itself is nonfluorescent but is converted to fluorescent rhodamine 123 when it is oxidized by ROS (reactive oxygen species) or RNS (reactive nitrogen species). […] H9C2 cells were dispensed into each well of a 96-well plate (1.5×10^4 cells/100 μl/well). The next day, the cells were pretreated with each compound, which was serially diluted 3-fold from the highest concentration, for 1 hr, and then treated with 10 μl of DHR123 12.5 μM stock solution (final concentration: 1.25 μM) in 37° C. incubator for 30 minutes. The cells were then immediately treated with 400 μM tBOOH and incubated for 2 hrs. Then, fluorescence, which was excited at 480 nm and emitted at 538 nm, was measured with a spectraMAX Gemini microplate reader. […] PBS. Then 100 μl of PBS was added to each well of the 96-well plate and fluorescence of each cell was measured by immunofluorescence microscopy (fluorescence microscope: Olympus) (Because of DHR123 in cells, fluorescence is emitted in proportion to oxidation). In addition, inhibition of the generation of superoxide was measured with MitoSOX red probe (final concentration: 5 μM) as the same method.

One may read the IC50 as the midpoint of a concentration-inhibition curve. Regarding `Cc1cc(NC2CCCC2)c2[nH]c(C3=N[C@@H](CC(=O)O)CS3)cc2c1` [Compound 1, [(S)-2-(7-cyclopentylamino-5-methyl-1H-indol-2-yl)-4,5-dihydro-thiazol-4-yl]-acetic acid], the half-inhibitory concentration (IC50) in assay [1] is 24 µM.
Take `Cc1cc(NC2CCOCC2)c2[nH]c(C3=N[C@@H](CC(=O)O)CS3)cc2c1` [Compound 2, {(S)-2-[5-methyl-7-(tetrahydropyran-4-ylamino)-1H-indol-2-yl]-4,5-dihydro-thiazol-4-yl}-acetic acid]: the values for the IC50 in assay [1] and in assay [2] were 24 µM and 6.5 µM, respectively.
Take `Cc1cc(NC2CCCC2)c2[nH]c(C3=N[C@@H](CC(=O)O)CO3)cc2c1` [Compound 3, [(S)-2-(7-cyclopentylamino-5-methyl-1H-indol-2-yl)-4,5-dihydro-oxazol-4-yl]-acetic acid]: in assay [1], the IC50 was 17.5 µM. Also, in assay [3], the “IC25(μM) H2O2 (0.3 mM)” value amounted to 2.2 µM and the “IC25(μM) H2O2 (0.6 mM)” value worked out at 2.15 µM. Besides, in assay [4], the “IC25(μM) tBOOH (0.2 mM)” value is 2 µM and the “IC25(μM) tBOOH (0.4 mM)” value amounted to 2.4 µM.
`O=C(O)C[C@H]1CSC(c2cc3cccc(NC4CCCC4)c3[nH]2)=N1` [Compound 4, [(S)-2-(7-cyclopentylamino-1H-indol-2-yl)-4,5-dihydro-thiazol-4-yl]-acetic acid]: the IC50 in assay [1] is 15 µM. Moreover, in assay [3], the “IC25(μM) H2O2 (0.3 mM)” value was 2.3 µM and the “IC25(μM) H2O2 (0.6 mM)” value was found to be 3.6 µM. Besides, in assay [4], the “IC25(μM) tBOOH (0.2 mM)” value was 3 µM and the “IC25(μM) tBOOH (0.4 mM)” value amounted to 5.8 µM.
For `O=C(O)C[C@H]1CSC(c2cc3cc(Oc4ccccc4)cc(NC4CCCC4)c3[nH]2)=N1` [Compound 5, [(S)-2-(7-cyclopentylamino-5-phenoxy-1H-indol-2-yl)-4,5-dihydro-thiazol-4-yl]-acetic acid], the values for the IC50 in assay [1] and in assay [5] were 20 µM and 3.4 µM, respectively.
With `O=C1CN(CC[C@H]2CSC(c3cc4cc(Oc5ccccc5)cc(NC5CCCC5)c4[nH]3)=N2)CCN1` [Compound 6, 4-{2-[(S)-2-(7-cyclopentylamino-5-phenoxy-1H-indol-2-yl)-4,5-dihydro-thiazol-4-yl]-ethyl}-piperazin-2-one], the figures for the IC50 in assay [1] and in assay [2] were 23 µM and 0.13 µM, respectively.
As to `Cc1nnc2n1CCN(CC[C@]1(c3cc4cc(Oc5ccccc5)cc(NC5CCCC5)c4[nH]3)CSC=N1)C2` [Compound 7, cyclopentyl-(2-{(S)-4-[2-(3-methyl-5,6-dihydro-8H-[1,2,4]triazolo[4,3-a]pyrazin-7-yl)-ethyl]-4,5-dihydro-thiazol-4-yl}-5-phenoxy-1H-indol-7-yl)-amine], the IC50 in assay [1] came to 25 µM.
Same read-out and setting: under `O=C(O)C[C@H]1CSC(c2cc3cccc(NCC4CCOCC4)c3[nH]2)=N1` [Compound 8, ((S)-2-{7-[(tetrahydropyran-4-ylmethyl)-amino]-1H-indol-2-yl}-4,5-dihydro-thiazol-4-yl)-acetic acid] stands 20.5 µM.
`O=S1(=O)CCN(Cc2cc(NC3CCOCC3)c3[nH]c(-c4ccccc4)cc3c2)CC1` [Compound 9, (tetrahydropyran-4-yl)-[2-phenyl-5-(1,1-dioxo-thiomorpholin-4-yl)methyl-1H-indol-7-yl]-amine]: the “IC25 (μM), anti-oxidant effect by using DHR 123” value (“IC25 (μM), anti-oxidant effect” below) in assay [6] came out at 0.10 µM. In assay [2], this compound returned an IC50 below 0.2 µM.
Regarding `O=S1(=O)CCN(Cc2cc(NCC3CCOCC3)c3[nH]c(-c4ccccc4)cc3c2)CC1` [Compound 10, [5-(1,1-dioxo-thiomorpholin-4-yl)methyl-2-phenyl-1H-indol-7-yl]-(tetrahydropyran-4-yl)methyl-amine], in assay [1], the IC50 amounted to 22 µM.
For the compound `O=S1(=O)CCN(Cc2cc(N(CC3CCOCC3)CC3CCOCC3)c3[nH]c(-c4ccccc4)cc3c2)CC1` [Compound 11, [5-(1,1-dioxo-thiomorpholin-4-yl)methyl-2-phenyl-1H-indol-7-yl]-bis-[(tetrahydropyran-4-yl)methyl]-amine], the half-maximal inhibitory concentration (IC50) in assay [1] worked out at 12.5 µM.
On to `O=C(C1CCCOC1)N1CCC(Nc2cc(CN3CCS(=O)(=O)CC3)cc3cc(-c4ccccc4)[nH]c23)CC1` (centres unmarked) [Compound 12, {4-[5-(1,1-dioxo-thiomorpholin-4-yl)methyl-2-phenyl-1H-indol-7-ylamino]-piperidin-1-yl}-(tetrahydropyran-3-yl)methanone], for which, in assay [1], the IC50 turned out to be 19 µM. In addition, the “IC25 (μM), anti-oxidant effect” value in assay [6] turned out to be 0.24 µM. In assay [5], the IC50 amounted to 0.21 µM. Besides, in assay [3], the “IC25(μM) H2O2 (0.3 mM)” value worked out at 1.65 µM and the “IC25(μM) H2O2 (0.6 mM)” value came to 2 µM. Further, in assay [4], the “IC25(μM) tBOOH (0.2 mM)” value amounted to 1.95 µM and the “IC25(μM) tBOOH (0.4 mM)” value was determined as 3 µM.
On to `CS(=O)(=O)N1CCC(Nc2cc(CN3CCS(=O)(=O)CC3)cc3cc(-c4ccccc4)[nH]c23)CC1` [Compound 13, [5-(1,1-dioxo-thiomorpholin-4-yl)methyl-2-phenyl-1H-indol-7-yl]-(1-methylsulfonyl-piperidin-4-yl)-amine], for which the IC50 in assay [1] is 17 µM; in assay [2], below 0.2 µM; in assay [5] it was 0.9 µM. Moreover, the “IC25 (μM), anti-oxidant effect” value in assay [6] was below 0.1 µM.
Turning to `Cc1cc(NCC2CCOCC2)c2[nH]c(C3=N[C@@H](CC(=O)O)CS3)cc2c1` [Compound 14, ((S)-2-{5-methyl-7-[(tetrahydropyran-4-ylmethyl)-amino]-1H-indol-2-yl}-4,5-dihydro-thiazol-4-yl)-acetic acid], the concentration for half-maximal inhibition (IC50) amounted to 28 µM in assay [1] and 0.72 µM in assay [2].
In assay [2], `c1ccc(-c2nc3cccc(NC4CCCC4)c3[nH]2)cc1` [Example 1, cyclopentyl-(2-phenyl-3H -benzimidazol-4-yl)-amine] displayed an IC50 of 0.6 µM.
Still for that read-out and setting: as for `c1ccc(-c2nc3cccc(NC4CCOCC4)c3[nH]2)cc1` [Example 2, (2-phenyl-3H-benzimidazol-4-yl)-(tetrahydro-pyran-4-yl)-amine], the figure is 2 µM.
